# Experimental data from PMC11547452, “Synthesis of New Pyrazolo[3,4-d]pyrimidine Derivatives: NMR Spectroscopic Characterization, X-Ray, Hirshfeld Surface Analysis, DFT, Molecular Docking, and Antiproliferative Activity Investigations” (Molecules, 2024).
# Tests used:
# HCT 116 = experiment: MTT antiproliferative assay, HCT 116; type: cell-based; conditions: Homo sapiens, three different experiments, read-out: In Vitro Cytotoxicity IC50
# Experimental: (§1) The antiproliferative activity of P1–P4 was evaluated by the MTT standard assay and sunitinib (a well-known FDA-approved multi-kinase inhibitor) as a reference against HCT 116, HepG2, and MCF-7 cell lines, and WI38 normal cell line. […] The antiproliferative activity of P1–P4 was assessed by using an MTT standard assay and sunitinib drug towards HCT 116, HepG2, MCF-7 cells, and WI38 normal cell line using the previously described methodology.
# HepG2 = experiment: MTT antiproliferative assay, HepG2; type: cell-based; conditions: Homo sapiens, three different experiments, read-out: In Vitro Cytotoxicity IC50
# Experimental: as §1
# MCF-7 = experiment: MTT antiproliferative assay, MCF-7; type: cell-based; conditions: Homo sapiens, MCF7, three different experiments, read-out: In Vitro Cytotoxicity IC50
# Experimental: as §1
# [1] = MTT cytotoxicity assay, WI38 normal cell line; type: cell-based; conditions: human, WI38 normal cells; WI38 normal cell line; MTT; three different experiments; read-out: In Vitro Cytotoxicity IC50
# Experimental: as §1
# [2] = test system: HCT 116, HepG2, and MCF-7 cell lines; experiment: MTT antiproliferative assay, summary over the tested cell lines; type: cell-based; conditions: across the tested cancer cell lines
# Experimental: as §1
# WI38 normal cell line = experiment: MTT cytotoxicity assay, WI38 normal cell line; type: cell-based; conditions: cancer cell lines vs WI38 normal cell line; formula not given
# Experimental: as §1
Structure (SMILES),IC50 [2],melting point,IC50 (HCT 116),IC50 (HepG2),IC50 (MCF-7),IC50 [1],Selectivity Index (WI38 normal cell line)
"Cc1nn(-c2ccccc2)c2ncn(C)c(=O)c12 [Compound P2, 3,5-Dimethyl-1-phenyl-1,5-dihydro-4H-pyrazolo[3,4-d]pyrimidin-4-one]",22.7 to 40.8 µM,143 to 145 °C,38.7 ± 2.3 µM,31.9 ± 2.1 µM,40.8 ± 2.4 µM,> 100 µM,
"Cc1nn(-c2ccccc2)c2ncn(CC(=O)c3ccccc3)c(=O)c12 [Compound P4, 3-Methyl-5-(2-oxo-2-phenylethyl)-1-phenyl-1,5-dihydro-4H-pyrazolo[3,4-d]pyrimidin-4-one]",> 67 µM,,92.5 ± 4.9 µM,66.8 ± 3.8 µM,> 100 µM,44 ± 2.6 µM,
"CCN(CC)CCNC(=O)c1c(C)[nH]c(/C=C2\C(=O)Nc3ccc(F)cc32)c1C [Sunitinib, sunitinib, reference compound]",,,,,,55.6 ± 3.3 µM,0.30

# Now from value to compound, other results behind:
IC50 [2],melting point,Structure (SMILES),IC50 (HCT 116),IC50 (HepG2),IC50 (MCF-7),IC50 [1],Selectivity Index (WI38 normal cell line)
22.7 to 40.8 µM,153 to 155 °C,"Cc1nn(-c2ccccc2)c2nc[nH]c(=O)c12 [Compound P1, 3-methyl-1-phenyl-1,5-dihydro-4H-pyrazolo[3,4-d]pyrimidin-4-one]",28.9 ± 2.1 µM,22.7 ± 1.7 µM,36.3 ± 2.6 µM,85.7 ± 4.7 µM,
> 67 µM,155 to 157 °C,"C#CCn1cnc2c(c(C)nn2-c2ccccc2)c1=O [Compound P3, 3-Methyl-1-phenyl-5-(prop-2-yn-1-yl)-1,5-dihydro-4H-pyrazolo[3,4-d]pyrimidin-4-one]",89.9 ± 4.5 µM,88.6 ± 4.7 µM,85.2 ± 4.4 µM,52.5 ± 3.1 µM,1.67
